The values below come from patent US6441167B1, “Cinoxacin lanthanide chelates and their use as biomolecular probes” (SmithKline Beecham plc, priority 1998, dated 2002).

Data set [1] in a line: Excitation and emission spectra and time resolved fluorescence decays of Europium chelates. It counts as physicochemical. The method, then:
Below are some typical excitation and emission spectra, alone with time resolved fluorescence decays for Europium chelates of this invention. All spectra and decay measurements were recorded on an Amino Bowman Spectrophotometer (model AB2), with a time resolution of 50 us.
The characteristic narrow emission bands of europium is observed at around 614 nm. The excitation spectrum for the 614 nm emission band peaks at 355 nm, and at least 50% of this intensity is achieved with excitation wavelengths up to 375 nm.
As with the vast majority of fluorescence compounds, the sensitiser group itself has a very short fluorescence lifetime. […] However, as is clearly shown by the decay traces the fluorescence of the Eu^3+ incorporated in the chelate (at 614 nm) has a characteristically long lifetime that enables a time-resolved discrimination between the Eu-containing chelate and other fluorescent compounds. The Eu fluorescence lifetime was fitted with a single exponential fit giving a lifetime of 633 us.

Data set [2] is described as follows: Time resolved fluorescence signal of streptavidin conjugate (Wallac Victor). It counts as physicochemical. The note with it: 50 nM in 100 uL; 400 us delay, 400 us read, cycle time 1000 us. The method, then: The reaction mixtures (549 ul) were then desalted into phosphate buffered saline containing 0.05% Tween 20 (PBS/Tween, Sigma) and 500 ul fractions were collected and assayed for protein content (Coomassie Blue Reagent, Biorad). The concentration of the pooled fractions (2 ml, 14 uM) was determined by Coomassie staining using streptavidin as a standard. […] 50 nM Cin-DTPA-SA gave 10,000 counts per second in 100 uL using these conditions. Improved labelling conditions yielding brighter conjugates, were obtained by freshly dissolving the Cin-DTPA-APA-chlorotriazine in 100% DMSO, increasing the pH of the reaction mixture to 9.0 in Bicarbonate buffer, and increasing the reaction time to approximately 16 hours at 4° C.

A further data set concerns Cy5-labelled peptides. The data set can be described thus: Time resolved fluorescence resonance energy transfer from Cin-DTPA-SA to Cy5-labelled peptide. The note with it: 100 nM Cin-DTPA-SA; saturating concentrations of Cy5-peptide; λex=340 nm. The method, then: Cin-DTPA-SA (100 nM) in PBS/Tween was mixed with increasing concentrations (0.1-1000 nM) of N-Succ-(Cy5-NH-K)AERAQAGVVNASSRLAE(K-NH-Biotin)-CO2H (where underlined letters refer to single amino acid codes) prepared by reaction of the corresponding unlabelled peptide with the N-hydroxysuccinimide esters of biotin and Cy5 (Amersham). After 30 minutes incubation at room temperature, the fluorescence intensity of the sample (λex=340 nm, λem=615 nm or 664 nm) was determined using a time gate of 400 us, 400 us read time, 1000 us cycle time for europium (615 nm) fluorescence and a time gate of 70 us, 200 us read time, 1000 us cycle time for Cy5 (664 nm) fluorescence. The 615 nm fluorescence decreased in a peptide concentration dependent manner by 62-67% at saturating concentrations of Cy5-peptide whilst the 664 nm fluorescence increased in a saturable manner from 1000 counts/second to 8,000 counts/second at saturating concentration of peptide. […] In addition, titration of 10 nM Cin-DTPA-SA with biotinylated allophycocyanin (Bt-APC, 0.5-500 nM, Sigma) in PBS/Tween was associated with an increase in the fluorescence signal at 664 nm from 1000 counts/second to 3,500 counts/second at 500 nM Bt-APC, again indicating energy transfer from the chelate to the acceptor.
The Eu^3+ fluorescence decreases and the Cy5 fluorescence increases as the Cy5-labelled peptide is titrated in. […]

For the compound `CCn1nc(C(=O)NCCNC(=O)CN(CCN(CCN(CC(=O)O)CC(=O)O)CC(=O)O)CC(=O)O)c(=O)c2cc3c(cc21)OCO3` [Cinoxacin-DTPA], the “fluorescence lifetime of the chromophore” value in data set [1] (at 421 nm, time resolution 50 us) was “too short to be reliably detected”. The compound further displayed an Eu fluorescence lifetime in data set [1] (at 614 nm, single exponential fit) of 633 us. Also, in data set [1] (in the presence of Eu^3+), the “emission bands of europium” value was “around 614 nm” and the “excitation spectrum peak for the 614 nm emission band” value was 355 nm. The “excitation wavelengths at which at least 50% of peak intensity is achieved” value in data set [1] (in the presence of Eu^3+, 614 nm emission) is reported as “up to 375 nm”.

Regarding “Cin-DTPA-SA: streptavidin labelled with Cinoxacin-DTPA-APA-chlorotriazene (D5) and loaded with Eu^3+”, the “time resolved fluorescence signal” value in data set [2] is reported as 10,000 counts per second. The “decrease of 615 nm fluorescence” value with Cy5-labelled peptides is given as 62-67%.

Regarding Cinoxacin-DTPA-Cinoxacin, the “decay of the chromophore” value in data set [1] (at 430 nm, in the presence of Eu^3+) is listed as “too fast for detection”.
